Test results reported in patent publication US5849900A, “Inhibition of viruses by antisense oligomers capable of binding to polypurine rich tract of single-stranded RNA or RNA-DNA hybrids” (Max-Planck-Gesellschaft zur Forderung der Wissenschafter …, priority 1995, dated 1998).
pIC50: −log10 of the molar value.

Experiments:
[1] = test system: PPT region of single-stranded RNA; RNase H; test: Protection of single-stranded RNA from RNase H cleavage by chimeric oligonucleotides 5'-A-B-C-3' (Example 4); assay type: biochemical, HIV-1; details: for oligonucleotide concentration that inhibited cleavage to 50%: 50-fold molar excess of the oligonucleotide over the template
Procedure: Chimeric oligonucleotides of the basic formula 5'-A-B-C-3' were tested with single-stranded RNA in a two-strand system. […] (Personal communication.) Average protection from cleavage was about 50%.
Protection from RNase H was monitored as above. Specifically, protection was monitored in vitro using RNA which was radioactively labeled at its 5'-end. Cleavage was analyzed on a sequencing gel. Cleavage within the PPT region of the RNA leads to a band of about 80 nucleotides. Protection from cleavage results in an uncleavaged full-length RNA. The amount of cleaved versus uncleaved RNA was monitored by phosphoimager.

RT = test: Inhibition of the RT by TFO-A variants; assay type: biochemical, HIV-1
Description: Through these studies, it was learned that the two bulges are essential for protection of RNA and that the overhanging 5'- and 3'-ends can be shortened. Variances numbered 5037 (SEQ ID NO:26) and 5074 (SEQ ID NO:21) inhibited cleavage to 50% at 50-fold molar excess of the oligonucleotide over the template, i.e., about one μM oligonucleotide.

[2] = test system: pKJ2 RNA hybridized with 40-mer deoxyribonucleotide complementary to the PPT region; RNase H; test: RNase H cleavage inhibition on pKJ2 RNA-DNA hybrid, phosphoimager quantitation (Example 3); assay type: biochemical, HIV-1; details: for pIC50: range of concentrations, FIG. 4, phosphoimager, read-out: concentration that inhibited the RNase H by 50%
Procedure: In vitro transcribed, 5'end-labeled pKJ2 RNA of 134 nucleotides in length was hybridized with a 10-fold excess of a 40-mer deoxyribonucleotide complementary to the PPT region. Volkmann, et al., Biochimie, 1993, 75, 71-78. Hybridizations were carried out in 25 mM Tris-acetate buffer (pH 6.8) containing 50 mM NaCl, 10 mM β-mercapotoethanol and 0.4 mM spermine hydrochloride. The mixture was incubated for 3 minutes at 90° C., then cooled slowly to room temperature. For triplex-formation, 1 pmol hybrid substrate was incubated with either 10 or 100 pmol oligodeoxynucleotide overnight at 37° C. Finally, each sample was treated with 12 ng enzyme in 10 microliters RNase H-standard buffer (see Example 2) for 30 minutes at 37° C. RNase H cleavage reaction was stopped by incubation at 96° C. for 2 minutes. Samples were ethanol-precipitated and analyzed on 10% polyacrylamide-TEE-urea gel. The gel was visualized by autoradiography and analyzed with a phosphoimager (Molecular Dynamics). GT purine-pyrimidine mixed DNA oligonucleotides and RNA oligonucleotides were analyzed and compared with a 25-mer pyrimidine sequence in parallel (Seq ID No: 3) and antiparallel (Seq ID No: 42) orientation. To quantitate the effects of the oligonucleotides, the amounts of uncut RNA were determined. The oligonucleotides tested are listed below:
Oligonucleotides GT1, GT2, and GU1 were tested further at a range of concentrations. The concentrations of the remaining materials were as previously. The quantitative plots of phosphoimager results for GT1, GT2, and GU1 are depicted in FIG. 4. GT1 inhibited the RNase H by 50% at 5.0 μM, and GU1 inhibited 50% at 0.5 μM.

[3] = test system: PPT of HIV-1 viral RNA (pKJ2 RNA); test: cDNA elongation / premature termination of cDNA synthesis on single-stranded viral RNA (Example 1); assay type: biochemical; details: antisense oligonucleotide hybridized with single-stranded HIV-1 RNA; HIV-1 RT
Procedure: HIV-1 viral RNA was transcribed in vitro from a construct containing a T7 promoter along with the PPT, which consists of the sequence: AAAAGAAAAGGGGGGA (SEQ ID NO: 1) or […] (SEQ ID NO: 2) when extended within the 3' LTR and 2 non-purines are included. The viral RNA, corresponding to pKJ2, consisted of 134 nucleotides. A ^32 P end-labeled antisense oligonucleotide was hybridized with the RNA. The cDNA reaction products were analyzed on 10% polyacrylamide TEE-urea gels. Details of the procedure are as follows:
To the standard reaction mixture described in Example 2 below were added a 125 μM quantity of one of the ddNTPs and each of the other three dNTPS and 4 units of HIV-1RT. The reactions were started by the addition of approximately 3 pmol of hybrid RNA (low specific activity) and treated as described above. To check for cDNA elongation, the same test was carried out, except with unlabeled in vitro transcribed RNA hybridized to a 10:1 mixture of unlabeled to labeled oligonucleotide. Aliquots were analyzed by electrophoresis on 10% TEE-urea-polyacrylamide gels.
The RNase H reaction was carried out in a total volume of 500 μL in RNase H buffer containing 1000 units of RNasin and 25 units of HIV-1RT/RNase H. After the reaction was started by the addition of 8 pmol of an unlabeled RNA-DNA oligonucleotide hybrid, the sample was divided into five aliquots of 100 μL and incubated for 30 minutes at 37° C., and the reaction was stopped at 95° C. for 5 minutes. The samples were placed on ice and to each was added 10 units of DNase I to remove the DNA oligonucleotide. After 10 minutes, the samples were incubated further at 37° C. for 10 minutes. The reactions were stopped at 95° C. for 10 minutes. […] Aliquots were analyzed by electrophoresis on an 8% TBE-urea-polyacrylamide gel together with dideoxy sequencing ladders generated with the same ^32 P-end-labeled DNA oligonucleotide primer on a single-stranded M13 DNA template harboring the corresponding DNA fragment. […]

[4] = 1 pmol hybrid with 10 or 100 pmol oligonucleotide

TTTTCTTTTGGGGGGTTTGGTTGGGTTTTCCCTTCCAGTCCCCCCTTTTCTTTT (chemistry not given here) [TFO A, 54-mer, partially self-complementary, hairpin-type stem-looped structure]
inhibition of cleavage (in words) ([1]; at concentrations less than one nanomolar, in vitro): completely inhibited cleavage

5037: TFO-A variant, sequence shown only as drawing in Table 6 (TTTTCTTTTGGGGGGTTTGGTTGGGTTTTCCCTTCCAGTCCCCCCTTTTCTTTT; chemistry not given here) [compound 5037]
oligonucleotide concentration that inhibited cleavage to 50% [1]: about one
concentration at which ninety-five percent inhibition of the RT occurred (RT): about 25 μM

UUUUGUUUUGGGGGGUGUGGUUGGG (chemistry not given here) [GU1, the RNA oligonucleotide tested]
inhibition of RNase H [2, 4]: ~100%
pIC50 [2]: 6.30

Us Us Us Us Cs Us Us Us Us Cs Cs Cs Cs Cs Cs Us TTTTTCCCCC TTTTCTTTT (UUUUCUUUUCCCCCCUTTTTTCCCCCCTTTTCTTTT; phosphorothioate backbone, chemistry not fully specified) [Rs RD]
protection from cleavage ([1]; at equimolar concentration): One hundred percent
inhibition (protection from RNase H) ([1]; at the same concentration as the phosphodiester): 100%

TFO F1: TFO F derivative that formed a pseudocircle due to a complementary tail (GCATGCCCTTTTCTTTTCCCCCCTTTTTTCCCCCCTTTTCTTTTCCGCATGC; forms pseudocircle through self-complementary tail, further chemistry not given here)
inhibition of RNase H [1]: about 80%

CCGCCCAGGCCACGCCTCCC (chemistry not given here) [SEQ ID NO: 11, control antisense 20-mer outside the PPT region, reference compound]
blocking of cDNA synthesis (inhibition of cDNA elongation) [3]: 20-50%

TGAATTAGCCCTTCCAGTCCCCCCTTTTCTTTTAAAAAGT (chemistry not given here) [SEQ ID NO: 9, antisense 40-mer covering the PPT]
blocking of cDNA synthesis (inhibition of cDNA elongation) [3]: 100%

CCCTTCCAGTCCCCCCTTTTCTTTT (chemistry not given here) [PY2]
inhibition of RNase H (degree, in words) [2, 4]: lowest degree of inhibition

AGGGGATTTGGTTGGGTTTTCCCTTCCAGTCCCCC (chemistry not given here) [compound 5074, TFO-A variant]
oligonucleotide concentration that inhibited cleavage to 50% [1]: about one
concentration at which ninety-five percent inhibition of the RT occurred (RT): about 25 μM

AGTCCCCCCTTTTCTTTTAA (chemistry not given here) [SEQ ID NO: 10, antisense 20-mer covering the PPT]
blocking of cDNA synthesis (inhibition of cDNA elongation) [3]: 100%

TTTTGTTTTGGGGGGTGTGGTTGGG (chemistry not given here) [TFO 1', 25-mer GT triplex-forming oligonucleotide]
pIC50 [2]: 5.30
